Experimental data taken from patent publication US20240208992A1, “MACROCYCLES AS CFTR MODULATORS” (Idorsia Pharmaceuticals Ltd, priority 2021, published 2024).

Target: human F508del-CFTR (Homo sapiens, UniProt P13569, DEL508-508)
Test: F508del-CFTR cell surface expression (corrector activity), DiscoveRx ß-galactosidase complementation chemiluminescence assay in recombinant U2OS cell line;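 also: U2OS cells co-expressing ProLink-tagged F508del-CFTR and a membrane-anchored enzyme acceptor, where more surface CFTR restores β-galactosidase activity measured by chemiluminescence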
Details: for EC50: EC50, F508del-CFTR cell surface expression; for Emax: U2OS
[1] = U2OS cells, 16h compound incubation, geomean of several measurements
[2] = in relation to the Emax of the corrector lumacaftor (=100%), U2OS cells, 16h compound incubation, arithmetic mean
[3] = U2OS cells, 16h compound incubation, geomean values
[4] = in relation to Emax of corrector lumacaftor (=100%), arithmetic mean values
[5] = U2OS cell line, 16h compound incubation, geomean values
[6] = in relation to the Emax of the corrector lumacaftor (=100%), U2OS cell line, 16h compound incubation, arithmetic mean values

human F508del-CFTR, sequence (P13569 with tags, fused parts or gaps DEL508-508): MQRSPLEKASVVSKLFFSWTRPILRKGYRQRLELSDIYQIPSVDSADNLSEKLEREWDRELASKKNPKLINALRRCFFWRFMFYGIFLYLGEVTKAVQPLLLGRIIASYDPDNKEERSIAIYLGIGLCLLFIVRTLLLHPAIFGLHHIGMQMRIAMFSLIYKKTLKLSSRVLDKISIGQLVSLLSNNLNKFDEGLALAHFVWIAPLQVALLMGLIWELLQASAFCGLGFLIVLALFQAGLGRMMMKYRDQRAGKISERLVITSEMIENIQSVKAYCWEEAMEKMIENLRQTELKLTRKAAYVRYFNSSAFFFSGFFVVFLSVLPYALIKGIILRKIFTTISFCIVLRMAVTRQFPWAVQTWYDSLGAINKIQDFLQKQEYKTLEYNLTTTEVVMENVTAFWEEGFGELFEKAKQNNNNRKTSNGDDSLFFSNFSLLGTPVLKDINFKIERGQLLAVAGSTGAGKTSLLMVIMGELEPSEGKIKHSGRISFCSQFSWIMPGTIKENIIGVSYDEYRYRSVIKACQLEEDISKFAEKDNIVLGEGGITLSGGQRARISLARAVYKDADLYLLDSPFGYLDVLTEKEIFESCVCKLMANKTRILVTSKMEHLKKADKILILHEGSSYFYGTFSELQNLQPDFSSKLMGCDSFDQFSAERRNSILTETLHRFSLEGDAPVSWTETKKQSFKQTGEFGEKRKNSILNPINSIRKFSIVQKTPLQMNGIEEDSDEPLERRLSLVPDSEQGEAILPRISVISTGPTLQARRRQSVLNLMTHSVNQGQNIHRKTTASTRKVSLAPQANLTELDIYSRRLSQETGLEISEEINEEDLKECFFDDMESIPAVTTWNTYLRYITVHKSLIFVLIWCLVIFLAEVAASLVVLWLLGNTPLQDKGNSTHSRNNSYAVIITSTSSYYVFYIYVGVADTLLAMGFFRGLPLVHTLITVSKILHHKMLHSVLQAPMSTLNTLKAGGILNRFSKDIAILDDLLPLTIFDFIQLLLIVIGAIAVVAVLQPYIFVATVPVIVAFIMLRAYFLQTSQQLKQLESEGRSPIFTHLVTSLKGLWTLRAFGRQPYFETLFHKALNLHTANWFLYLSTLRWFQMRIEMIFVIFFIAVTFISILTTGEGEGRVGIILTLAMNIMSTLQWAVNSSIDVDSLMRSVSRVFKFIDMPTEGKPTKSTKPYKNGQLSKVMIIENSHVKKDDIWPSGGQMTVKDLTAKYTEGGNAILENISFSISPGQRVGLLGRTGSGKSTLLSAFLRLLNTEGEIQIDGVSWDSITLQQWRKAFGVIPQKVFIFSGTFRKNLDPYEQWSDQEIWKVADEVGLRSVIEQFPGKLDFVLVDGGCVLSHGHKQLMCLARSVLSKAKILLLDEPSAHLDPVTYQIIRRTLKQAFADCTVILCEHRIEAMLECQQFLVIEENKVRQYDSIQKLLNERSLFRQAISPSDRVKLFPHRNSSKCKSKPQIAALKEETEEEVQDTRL

Row | EC50 [3] [nM] | Emax [4] [%] | SMILES | EC50 [5] [nM] | Emax [6] [%] | further results
1 | – | – | COc1cc(CCNC(=O)[C@@H]2CC(=O)N(C)[C@@H](CC(C)C)C(=O)N(C)[C@H](CC3CCC(F)(F)CC3)C(=O)N[C@H](Cc3ccccc3)COc3ccnc(OC)c3C(=O)N2)on1 [Example 854, (3R,6R,9S,13S)-3-benzyl-6-((4,4-difluorocyclohexyl)methyl)-9-isobutyl-16-methoxy-N-(2-(3-methoxyisoxazol-5-yl)ethyl)-7,10-dimethyl-5,8,11,15-tetraoxo-2,3,4,5,6,7,8,9,10,11,12,13,14,15-tetradecahydropyrido[3,4-p][1]oxa[4,7,10,14]tetraazacycloheptadecine-13-carboxamide] | – | – | EC50 [1]: 136 nM; Emax [2]: 326%
2 | – | – | COc1cccc(CCNC(=O)[C@@H]2CC(=O)N(C)[C@@H](CC(C)C)C(=O)N(C)CC(=O)N[C@H](Cc3ccccc3)COc3cc4c(cc3C(=O)N2)OCO4)c1 [Example 224, (7R,13S,17S)-7-benzyl-13-isobutyl-N-(3-methoxyphenethyl)-11,14-dimethyl-9,12,15,19-tetraoxo-6,7,8,9,10,11,12,13,14,15,16,17,18,19-tetradecahydro-[1,3]dioxolo[4′,5′:4,5]benzo[1,2-p][1]oxa[4,7,10,14]tetraazacycloheptadecine-17-carboxamide] | 340 | 144 | –
3 | – | – | CC(C)C[C@H]1C(=O)N(C)C2(CC2)C(=O)N[C@H](Cc2ccccc2)COc2cnc3ccc(F)cc3c2C(=O)N[C@H](C(=O)NCCn2cc(Br)cn2)CC(=O)N1C [Example 173, (3′S,7′S,13′R)-13′-benzyl-N-(2-(4-bromo-1H-pyrazol-1-yl)ethyl)-20′-fluoro-7′-isobutyl-6′,9′-dimethyl-1′,5′,8′,11′-tetraoxo-2′,3′,4′,5′,6′,7′,8′,9′,11′,12′,13′,14′-dodecahydro-1′H-spiro[cyclopropane-1,10′-[1]oxa[4,7,10,14]tetraazacycloheptadecino[17,16-c]quinoline]-3′-carboxamide] | 455 | 212 | –
4 | – | – | CN1C(=O)C[C@@H](C(=O)NCCc2ccc3c(c2)OCO3)NC(=O)c2c(ccc3ccccc23)OC[C@@H](Cc2ccccc2)NC(=O)CN(C[C@H]2CCCCO2)C(=O)[C@@H]1CC1CC1 [Example 340, (3S,7S,13R)-N-(2-(benzo[d][1,3]dioxol-5-yl)ethyl)-13-benzyl-7-(cyclopropylmethyl)-6-methyl-1,5,8,11-tetraoxo-9-(((R)-tetrahydro-2H-pyran-2-yl)methyl)-1,2,3,4,5,6,7,8,9,10,11,12,13,14-tetradecahydronaphtho[1,2-p][1]oxa[4,7,10,14]tetraazacycloheptadecine-3-carboxamide] | 278 | 139 | –
5 | – | – | C#CC[C@H]1C(=O)N(CCC2CCCCC2)CC(=O)N[C@H](Cc2ccccc2)COc2ccc3ccccc3c2C(=O)N[C@H](C(=O)NCCc2ccc3c(c2)OCO3)CC(=O)N1C [Example 339, (3S,7S,13R)-N-(2-(benzo[d][1,3]dioxol-5-yl)ethyl)-13-benzyl-9-(2-cyclohexylethyl)-6-methyl-1,5,8,11-tetraoxo-7-(prop-2-yn-1-yl)-1,2,3,4,5,6,7,8,9,10,11,12,13,14-tetradecahydronaphtho[1,2-p][1]oxa[4,7,10,14]tetraazacycloheptadecine-3-carboxamide] | 195 | 237 | –
6 | 208 | 281 | COCCCN1C(=O)[C@H](CC(C)C)N(C)C(=O)C[C@@H](C(=O)NCCc2cccc(OC)c2)NC(=O)c2c(ccc3ccccc23)OC[C@@H](Cc2ccccc2)NC(=O)[C@H]1C [Example 431, (3S,7S,10R,13R)-13-benzyl-7-isobutyl-N-(3-methoxyphenethyl)-9-(3-methoxypropyl)-6,10-dimethyl-1,5,8,11-tetraoxo-1,2,3,4,5,6,7,8,9,10,11,12,13,14-tetradecahydronaphtho[1,2-p][1]oxa[4,7,10,14]tetraazacycloheptadecine-3-carboxamide] | – | – | –
7 | 840 | 274 | COCCN1CCN2C(=O)[C@H](CC(C)C)N(C)C(=O)C[C@@H](C(=O)NCCc3nc4c(s3)CCC4)NC(=O)c3c(cnc4ccccc34)OC[C@@H](Cc3ccccc3)NC(=O)[C@H]2C1 [Example 415, (9S,13S,19aR,22R)-22-benzyl-N-(2-(5,6-dihydro-4H-cyclopenta[d]thiazol-2-yl)ethyl)-13-isobutyl-18-(2-methoxyethyl)-12-methyl-7,11,14,20-tetraoxo-7,8,9,10,11,12,13,14,17,18,19,19a,20,21,22,23-hexadecahydro-16H-pyrazino[2′,1′:6,7][1]oxa[4,7,10,14]tetraazacycloheptadecino[17,16-c]quinoline-9-carboxamide] | – | – | –
8 | – | – | COc1cc(C[C@@H]2C(=O)N[C@H](Cc3ccccc3)COc3ccc4ncc(F)cc4c3C(=O)N[C@H](C(=O)NCCc3noc(C4CC4)n3)CC(=O)N(C)[C@@H](CC(C)C)C(=O)N2C)on1 [Example 879, (3S,7S,10R,13R)-13-benzyl-N-(2-(5-cyclopropyl-1,2,4-oxadiazol-3-yl)ethyl)-20-fluoro-7-isobutyl-10-((3-methoxyisoxazol-5-yl)methyl)-6,9-dimethyl-1,5,8,11-tetraoxo-1,2,3,4,5,6,7,8,9,10,11,12,13,14-tetradecahydro-[1]oxa[4,7,10,14]tetraazacycloheptadecino[16,17-f]quinoline-3-carboxamide] | – | – | EC50 [1]: 63 nM; Emax [2]: 360%
9 | – | – | COc1cc2c(c(OC)n1)C(=O)N[C@H](C(=O)NCCc1cc(C3CC3)no1)CC(=O)N(C)[C@@H](CC(C)C)C(=O)N1CCCC[C@@H]1C(=O)N[C@H](Cc1ccccc1)CO2 [Example 870, (7S,11S,17aR,20R)-20-benzyl-N-(2-(3-cyclopropylisoxazol-5-yl)ethyl)-11-isobutyl-2,4-dimethoxy-10-methyl-5,9,12,18-tetraoxo-5,6,7,8,9,10,11,12,15,16,17,17a,18,19,20,21-hexadecahydro-14H-dipyrido[2,1-f:3′,4′-p][1]oxa[4,7,10,14]tetraazacycloheptadecine-7-carboxamide] | – | – | EC50 [1]: 201 nM; Emax [2]: 316%
10 | 278 | 269 | CC(C)C[C@H]1C(=O)N2CCCC[C@@H]2C(=O)N[C@H](Cc2ccccc2)COc2cnc3ccccc3c2C(=O)N[C@H](C(=O)NCCc2ccc(-n3nccn3)cc2)CC(=O)N1C [Example 463, (9S,13S,19aR,22R)-N-(4-(2H-1,2,3-triazol-2-yl)phenethyl)-22-benzyl-13-isobutyl-12-methyl-7,11,14,20-tetraoxo-7,8,9,10,11,12,13,14,17,18,19,19a,20,21,22,23-hexadecahydro-16H-pyrido[2′,1′:6,7][1]oxa[4,7,10,14]tetraazacycloheptadecino[17,16-c]quinoline-9-carboxamide] | – | – | –
11 | 889 | 410 | COc1cc(CCNC(=O)[C@@H]2CC(=O)N(C)[C@@H](CC(C)C)C(=O)N(C)[C@H](Cc3nc(-c4ccc(F)cn4)no3)C(=O)N[C@H](Cc3ccccc3)COc3ccnc(OC)c3C(=O)N2)on1 [Example 783, (3R,6R,9S,13S)-3-benzyl-6-((3-(5-fluoropyridin-2-yl)-1,2,4-oxadiazol-5-yl)methyl)-9-isobutyl-16-methoxy-N-(2-(3-methoxyisoxazol-5-yl)ethyl)-7,10-dimethyl-5,8,11,15-tetraoxo-2,3,4,5,6,7,8,9,10,11,12,13,14,15-tetradecahydropyrido[3,4-p][1]oxa[4,7,10,14]tetraazacycloheptadecine-13-carboxamide] | – | – | –
12 | – | – | COc1cccc(CCNC(=O)[C@@H]2CC(=O)N(C)[C@@H](CC(C)C)C(=O)N(C[C@H]3CCCCO3)CC(=O)N[C@H](Cc3ccccc3)COc3cccc(OC)c3C(=O)N2)c1 [Example 311, (3R,9S,13S)-3-benzyl-9-isobutyl-16-methoxy-N-(3-methoxyphenethyl)-10-methyl-5,8,11,15-tetraoxo-7-(((R)-tetrahydro-2H-pyran-2-yl)methyl)-2,3,4,5,6,7,8,9,10,11,12,13,14,15-tetradecahydrobenzo[p][1]oxa[4,7,10,14]tetraazacycloheptadecine-13-carboxamide] | 454 | 127 | –
13 | – | – | CC(C)C[C@H]1C(=O)N2CCN(C3CCC3)C[C@H]2C(=O)N[C@H](Cc2ccccc2)COc2cnc3ccccc3c2C(=O)N[C@H](C(=O)NCCc2ccc3c(c2)OCO3)CC(=O)N1C [Example 394, (9S,13S,19aS,22R)-N-(2-(benzo[d][1,3]dioxol-5-yl)ethyl)-22-benzyl-18-cyclobutyl-13-isobutyl-12-methyl-] | 262 | 151 | –
14 | – | – | CN1C(=O)C[C@@H](C(=O)NCCc2ccc3c(c2)OCO3)NC(=O)c2c(ccc3ccccc23)OC[C@@H](Cc2ccccc2)NC(=O)CN(C[C@@H]2CCCCO2)C(=O)[C@@H]1CC1CCCC1 (racemic) [Example 284, (3RS,7S,13R)-N-(2-(benzo[d][1,3]dioxol-5-yl)ethyl)-13-benzyl-7-(cyclopentylmethyl)-6-methyl-1,5,8,11-tetraoxo-9-(((S)-tetrahydro-2H-pyran-2-yl)methyl)-1,2,3,4,5,6,7,8,9,10,11,12,13,14-tetradecahydronaphtho[1,2-p][1]oxa[4,7,10,14]tetraazacycloheptadecine-3-carboxamide] | – | 136 | –

Row | SMILES | EC50 [3] [nM] | Emax [4] [%] | EC50 [5] [nM] | Emax [6] [%] | further results
15 | COc1cccc(CCNC(=O)[C@@H]2CC(=O)N(C)[C@@H](CC(C)C)C(=O)N3CCN(C(=O)OC4CCOCC4)C[C@@H]3C(=O)N[C@H](Cc3ccccc3)COc3ccc4ccccc4c3C(=O)N2)c1 [Example 756, Tetrahydro-2H-pyran-4-yl (4aR,7R,18S,22S)-7-benzyl-22-isobutyl-18-((3-methoxyphenethyl)carbamoyl)-21-methyl-5,16,20,23-tetraoxo-1,2,4,4a,5,6,7,8,16,17,18,19,20,21,22,23-hexadecahydro-3H-naphtho[1,2-p]pyrazino[2,1-f][1]oxa[4,7,10,14]tetraazacycloheptadecine-3-carboxylate] | 311 | 252 | – | – | –
